The source of these data is ChEMBL document CHEMBL4819147, “Design, synthesis and biological evaluation of novel molecules as potent PARP-1 inhibitors” (Bioorg Med Chem Lett, 2021).

Series [1] deals with T1, Poly [ADP-ribose] polymerase 1 (Homo sapiens, UniProt P09874). Briefly: Inhibition of PARP1 (unknown origin).
The subject of series [2] is HCT-116. In words: Antiproliferative activity against BRCA2-deficient human HCT116 cells assessed as cell growth inhibition. The class given is functional, cell-based.
The subject of the next series is HCC1937. In words: Antiproliferative activity against BRCA1-deficient human HCC1937 cells assessed as cell growth inhibition. The class given is functional, cell-based.
Series [3] deals with T1, Poly [ADP-ribose] polymerase 1. In words: Inhibition of PARP1 (unknown origin) at 10 nM relative to control.
Series [4] in a line: Octanol-water partition coefficient, logP of the compound. The format is physicochemical.
A short description of series [5]: Half life in human liver microsomes incubated for 50 mins. The class given is ADME, Microsome. Background: Microsomes from liver hold many membrane-bound enzymes, among them those of drug oxidation.
Series [6] in a line: Intrinsic clearance in human liver microsomes incubated for 50 mins. The class given is ADME, Microsome.
The test system of series [7] is HCT-116. In words: Potency index, ratio of olaparibIC50 to test compound IC50 for antiproliferative activity against BRCA2-deficient human HCT116 cells assessed as cell growth inhibition. The class given is functional.

T1 sequence (P09874 whole entry): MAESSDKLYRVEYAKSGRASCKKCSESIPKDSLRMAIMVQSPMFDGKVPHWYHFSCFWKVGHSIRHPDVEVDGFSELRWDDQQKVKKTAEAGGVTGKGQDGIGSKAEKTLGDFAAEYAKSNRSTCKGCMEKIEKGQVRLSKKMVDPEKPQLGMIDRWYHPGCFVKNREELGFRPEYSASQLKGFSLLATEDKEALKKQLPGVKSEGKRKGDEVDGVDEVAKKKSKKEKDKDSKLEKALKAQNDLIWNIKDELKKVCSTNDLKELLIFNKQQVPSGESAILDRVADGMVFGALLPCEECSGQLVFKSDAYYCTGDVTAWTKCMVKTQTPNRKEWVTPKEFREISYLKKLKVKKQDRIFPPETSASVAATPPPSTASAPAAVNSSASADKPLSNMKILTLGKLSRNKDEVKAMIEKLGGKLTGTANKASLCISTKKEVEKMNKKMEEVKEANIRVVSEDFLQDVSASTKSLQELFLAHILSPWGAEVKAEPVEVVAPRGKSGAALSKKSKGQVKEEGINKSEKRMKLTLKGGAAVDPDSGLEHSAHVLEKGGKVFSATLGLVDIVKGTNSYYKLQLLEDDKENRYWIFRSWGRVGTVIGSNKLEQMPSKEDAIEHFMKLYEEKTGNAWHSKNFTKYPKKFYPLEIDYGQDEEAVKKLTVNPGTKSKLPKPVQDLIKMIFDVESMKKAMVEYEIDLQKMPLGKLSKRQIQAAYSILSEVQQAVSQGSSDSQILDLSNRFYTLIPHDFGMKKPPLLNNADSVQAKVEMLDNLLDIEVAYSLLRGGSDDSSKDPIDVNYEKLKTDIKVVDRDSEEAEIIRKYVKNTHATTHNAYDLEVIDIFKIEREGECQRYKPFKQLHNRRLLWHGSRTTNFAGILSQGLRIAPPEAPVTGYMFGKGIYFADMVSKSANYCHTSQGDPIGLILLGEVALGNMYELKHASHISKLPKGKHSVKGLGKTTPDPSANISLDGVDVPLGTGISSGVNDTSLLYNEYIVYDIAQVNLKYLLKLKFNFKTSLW

Turning to `Cc1ccc2nc3n(c2c1)CCN(C(=O)c1cc(Cc2n[nH]c(=O)c4ccccc24)ccc1F)C3`, the IC50 (commonly the concentration needed to halve the response being measured) in series [1] stood at 0.47 nM; with HCT-116 [2], 10 nM; in the series with HCC1937 it was 11.6 nM.
Take `O=C(c1cc(Cc2n[nH]c(=O)c3ccccc23)ccc1F)N1CCN(c2nc3ccccc3[nH]2)CC1`: the results for the IC50 (in series [1]; in the series with HCT-116 [2]; with HCC1937) were 0.19 nM, 490 nM and 610 nM, respectively. Besides, the inhibition (in general, the share of the control response that was lost under treatment) in series [3] amounted to 100%. In series [4], the logP (in general, a log measure of how a compound divides between an organic and an aqueous phase) turned out to be 4.15.
In series [3], `O=c1[nH]nc(Cc2ccc(F)c(CN3CCC(c4nc5ccccc5[nH]4)CC3)c2)c2ccccc12` returned an inhibition of 47%.
`O=c1[nH]nc(Cc2ccc(F)c(CN3CCN(c4nc5ccccc5[nH]4)CC3)c2)c2ccccc12` gave an inhibition in series [3] of 42%.
Turning to `O=C(c1cc(Cc2n[nH]c(=O)c3ccccc23)ccc1F)N1CCn2c(nc3ccc(F)cc32)C1`, the IC50 is 0.51 nM in series [1], 6.62 nM with HCT-116 [2] and 12.7 nM with HCC1937. Besides, the half-life (usually the time in which the quantity being followed falls by half) in series [5] was determined as 2.89 h. The molecule further showed a CLH in series [6] of 40 µL/min/mg. Further, the “Ratio IC50” value in the series on HCT-116 [7] turned out to be 885. The molecule also gave a logP in series [4] of 4.83.
For the molecule `NC(=O)c1cncc2[nH]c(C3CCN(C(=O)c4cc(Cc5n[nH]c(=O)c6ccccc56)ccc4F)CC3)nc12`, the results for the IC50 (in series [1]; with HCT-116 [2]; in the series on HCC1937) were 0.23 nM, 161000 nM and 130000 nM, respectively.
Turning to `COc1ncc(C(N)=O)c2nc(C3CCN(C(=O)c4cc(Cc5n[nH]c(=O)c6ccccc56)ccc4F)CC3)[nH]c12`, the IC50 in series [1] turned out to be 2.4 nM. Further, the inhibition in series [3] worked out at 98%.
Take `O=C(c1cc(Cc2n[nH]c(=O)c3ccccc23)ccc1F)N1CCC(c2nc3ccccc3[nH]2)CC1`: the IC50 in series [1] was determined as 0.63 nM. In series [3], this molecule had an inhibition of 100%.
Consider `O=C(c1cc(Cc2n[nH]c(=O)c3ccccc23)ccc1F)N1CCN(C(=O)C2CC2)CC1` [OLAPARIB], for which the IC50 in the series on HCT-116 [2] stood at 5860 nM; in the series on HCC1937, 13000 nM. Also, the logP in series [4] worked out at 2.79.
In series [1], `O=C(c1cc(Cc2n[nH]c(=O)c3ccccc23)ccc1F)N1CCn2c(nc3ccccc32)C1` registered an IC50 of 0.49 nM.
In series [3], `COc1nnc(Cc2ccc(F)c(C(=O)N3CCC(c4nc5c(C(N)=O)cncc5[nH]4)CC3)c2)c2ccccc12` displayed an inhibition of 40%.
With `O=C(c1cc(Cc2n[nH]c(=O)c3ccccc23)ccc1F)N1CCn2c(nc3ccc(Cl)cc32)C1`, the IC50 in series [1] is 0.4 nM; in the series on HCT-116 [2], 11.9 nM; in the series on HCC1937, 11.7 nM.
Regarding `CCOc1ncc(C(N)=O)c2nc(C3CCN(C(=O)c4cc(Cc5n[nH]c(=O)c6ccccc56)ccc4F)CC3)[nH]c12`, 1.7 nM corresponded to half-maximal inhibition in series [1] (IC50). This molecule also had an inhibition in series [3] of 100%.
